Our source for the Ki and inhibition in vivo values is patent publication US5538985A, “Pyrrolidinone derivatives” (Mitsui Toatsu Chemicals, Inc., priority 1994, dated 1996).

One experiment addresses T1, α1 receptor (Rattus norvegicus, UniProt Q9R0C9).
T1 construct: whole brain of a rat except for the cerebellum and medulla; from tissue; host or cells: rat whole brain except cerebellum and medulla, homogenate
In words: radioreceptor assay (α1 [sic] receptor) with 3H-(+)pentazocine in rat whole brain homogenate (Pharmacological Test 1). Conditions: 3H-(+)pentazocine 5 nM, rat whole brain except cerebellum and medulla, 2 hours. Type of experiment: binding. As for the experimental part: By modifying the Vilner et al. method [B. J. Vilner and W. D. Bowen: Mechanisms for Neuromodulation and neuroprotection? in Multiple Sigma and PCP Receptor Ligands, pp341 (1992) NPP Books], a radioreceptor assay was conducted with respect to the α1 receptor. A homogenate (10 mg/ml) of the whole brain of a rat except for the cerebellum and medulla was incubated together with each test drug and ^3 H-ligand [5 nM of ^3 H-(+)pentazocine (NEN)] for 2 hours. Brain tissue was filtered under suction through a glass fiber filter paper ("GF/B", trade name; manufactured by Whatman) using a cell harvester ("LL-12", trade name; manufactured by Brandel) and was washed twice, each with 3 ml of a buffer solution. The glass fiber filter paper was placed in a vial, to which 3.5 ml of a scintillator ("ACSII" trade name; product of Amersham International plc) were added. After being left for 10 hours, the amount of ^3 H-ligand bound to the receptor was measured by a liquid scintillation counter. Incidentally, (+)-pentazocine (10 μM) was used for the measurement of a blank.
Binding rates of ^3 H-ligand to the receptor at individual concentrations of each test drug were plotted to draw a graph by assuming that the binding rate without addition of the test drug was 100% and that when the blank substance was added was 0%. A concentration of the test drug, which would give a binding rate of 50%, was then determined and recorded as an IC50 value. From the IC50 value, the Ki value was determined in accordance with the following formula: [formula] KD represents the dissociation constant between ^3 H-ligand and the receptor, and was obtained by the Scatchard plotting of the bonding to the receptor when the concentration of ^3 H-ligand was varied.

The test system of experiment [1] is mAMP-induced hyperkinesia. In words: inhibition of methamphetamine (mAMP)-induced hyperkinesia in mice (Pharmacological Test 2). Conditions: Mus musculus, sc, 0.5 h; test drug 10 mg/kg peritoneally; methamphetamine 1.5 mg/kg subcutaneously; motion measured for 30 minutes; read-out: Inhibition rate of mAMP-induced hyperkinesia (%). Type of experiment: in vivo, mice (ddy male). As for the experimental part: Using mice, antipsychotic activities were investigated in terms of hyperkinesia induced by methamphetamine. For the experiment, ten 5 weeks-old ddy male mice (NIHON S.L.C K.K.) were used per each group. Immediately after each mouse was peritoneally administered at 10 mg/kg with the corresponding test drug, the mouse was placed in a photocell cage for measurement. The amount of motion was measured for 30 minutes (the first measurement: this was recorded as the action of the test drug for the active movement). Thereafter, the mouse was once taken out of the cage and subcutaneously administered at 1.5 mg/kg with methamphetamine. The mouse was then returned to the same cage and the amount of motion was measured for 30 minutes. An average amount of motion of each group was determined based on the amounts of motion after the administration of methamphetamine (mAMP) as obtained by the second measurement, and the inhibition rate (%) of hyperkinesia was calculated in accordance with the following formula: [formula]
The group to which the test drug was administered: the test drug+methamphetamine
Control group: vehicle+methamphetamine
Normal group: vehicle+saline

T1 sequence (Q9R0C9 whole entry): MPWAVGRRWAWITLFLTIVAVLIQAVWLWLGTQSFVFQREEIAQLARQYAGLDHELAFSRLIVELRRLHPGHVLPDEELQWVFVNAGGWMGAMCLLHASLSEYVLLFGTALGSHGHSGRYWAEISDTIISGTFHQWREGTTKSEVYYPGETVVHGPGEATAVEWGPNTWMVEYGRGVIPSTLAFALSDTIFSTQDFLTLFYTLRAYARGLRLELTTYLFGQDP

What is called Ki is a dissociation constant, usually derived from enzyme kinetics or from competition with a known ligand. The low end stands for tighter binding, the high end for weaker binding. With `CC1CCN(CC2CCN(c3ccc(C(C)(C)C)cc3)C2=O)CC1` (stereo not shown) [Example 27], on α1 receptor, the Ki stood at 2.3 nM. Still for that read-out and setting: as for `O=C1C(CN2CCCCCC2)CCN1c1cccc(C(F)(F)F)c1` (stereo not shown) [Example 3], the figure is 3.2 nM.

As for `O=C1C(CN2CCC(O)CC2)CCN1c1ccc(Cl)cc1` (stereo not shown) [Example 40], the inhibition in vivo at 10 mg/kg in experiment [1] turned out to be 73%.

Take `O=C1C(CN2CCCCCC2)CCN1c1ccc(-c2ccccc2)cc1` (stereo not shown) [Example 70]: in experiment [1], the inhibition in vivo at 10 mg/kg was 66%. For `CC1CCN(CC2(C)CCN(c3ccc(Cl)cc3)C2=O)CC1` (stereo not shown) [Example 49], the Ki at α1 receptor amounted to 3 nM. On to `O=C1C(CN2CCCCCC2)CCN1c1ccc(F)cc1` (stereo not shown) [Example 53], for which, in experiment [1], the inhibition in vivo at 10 mg/kg amounted to 62%.

For the molecule `COc1ccc(N2CCC(CN3CCC(C)CC3)C2=O)cc1` (stereo not shown) [Example 41], the inhibition in vivo at 10 mg/kg in experiment [1] came to 53%.

`O=C1C(CN2CCCCC2)CCN1c1cccc(Cl)c1` (stereo not shown) [Example 12]: the Ki on α1 receptor stood at 4.7 nM. As for `O=C1C(CN2CCCCC2)CCN1c1ccc(Cl)c(Cl)c1` (stereo not shown) [Example 2], the affinity at α1 receptor corresponds to a Ki of 2.8 nM. Turning to `O=C1C(CN2CCCCC2)CCN1c1ccc(Cl)cc1` (stereo not shown) [Example 23], in experiment [1], the inhibition in vivo at 10 mg/kg was determined as 54%. Turning to `CC1CCN(CC2CC(=O)N(c3ccc(Cl)cc3)C2)CC1` (stereo not shown) [Example 81], in experiment [1], the inhibition in vivo at 10 mg/kg stood at 53%.

As to `O=C1C(CN2CCCCC2)CCN1c1cccc(C(F)(F)F)c1` (stereo not shown) [Example 20], on α1 receptor, the Ki was 3.5 nM. As for `O=C1C(CN2CCCC2)CCN1c1ccc(Cl)cc1` (stereo not shown) [Example 36], in experiment [1], the inhibition in vivo at 10 mg/kg amounted to 56%. At α1 receptor, `O=C1C(CN2CCCCCC2)CCN1c1ccc(Cl)cc1` (single isomer, unassigned; (-)) [Example 93 (-) form, (-) 1-(4-Chlorophenyl)-3-(hexahydro-1H-azepin-1-ylmethyl)-2-pyrrolidinone] yielded a Ki of 1.5 nM. Regarding `CCc1ccc(N2CC(CN3CCCCC3)CC2=O)cc1` (stereo not shown) [Example 39], the inhibition in vivo at 10 mg/kg in experiment [1] was determined as 54%. On the same count and under the same terms, as for `O=C1CC(CN2CCCCC2)CN1c1ccc(F)cc1` (stereo not shown) [Example 37], the figure is 62%. On α1 receptor, `O=C1C(CN2CCCCCC2)CCN1c1ccc(Cl)cc1` (stereo not shown) [Example 82] gave a Ki of 2 nM. Regarding `COC1CCN(CC2CCN(c3ccc(Cl)cc3)C2=O)CC1` (stereo not shown) [Example 75], at α1 receptor, the affinity corresponds to a Ki of 8 nM. Also, in experiment [1], the inhibition in vivo at 10 mg/kg was 66%. `CCC1CCN(CC2CCN(c3ccc(Cl)cc3)C2=O)CC1` (stereo not shown) [Example 29] came in with a Ki at α1 receptor of 3.8 nM.

`CC1CCN(CC2CCN(c3cccc(C(F)(F)F)c3)C2=O)CC1` (stereo not shown) [Example 11]: at α1 receptor, the affinity, expressed as Ki, was 2.1 nM. `CC(=O)C1CCN(CC2CCN(c3ccc(Cl)cc3)C2=O)CC1` (stereo not shown) [Example 45]: the inhibition in vivo at 10 mg/kg in experiment [1] was found to be 51%. On the same count and under the same terms, the same measure for `CC1CCN(CC2CCN(c3ccc(Cl)cc3)C2=O)CC1` (stereo not shown) [Example 26]: 56%.

On α1 receptor, `O=C1C(CN2CCCCCC2)CCN1c1ccc(Cl)cc1` (stereo not shown) [Example 1] yielded a Ki of 2.7 nM. Moreover, the inhibition in vivo at 10 mg/kg in experiment [1] was found to be 55%. On α1 receptor, `O=C1C(CN2CCCCC2)CCN1c1cccc(Br)c1` (stereo not shown) [Example 13] displayed a Ki of 1.3 nM. The same measure, in the same setting: as for `COc1cccc(N2CCC(CN3CCC(C)CC3)C2=O)c1` (stereo not shown) [Example 43], the figure is 3.6 nM. As to `CC1CCN(CC2CCN(c3ccc(Cl)c(Cl)c3)C2=O)CC1` (stereo not shown) [Example 33], the Ki on α1 receptor amounted to 7 nM. In experiment [1], the inhibition in vivo at 10 mg/kg is 53%.

As for `COc1cccc(N2CCC(CN3CCCCCC3)C2=O)c1` (stereo not shown) [Example 44], the Ki on α1 receptor came to 5.9 nM.

On to `O=C1C(CN2CCCCCCC2)CCN1c1ccc(Cl)c(Cl)c1` (stereo not shown) [Example 31], for which, on α1 receptor, affinity was put at a Ki of 1.2 nM. For `O=C1C(CN2CCCCCC2)CCN1c1ccc(C2CCCCC2)cc1` (stereo not shown) [Example 64], the inhibition in vivo at 10 mg/kg in experiment [1] came out at 57%.

For `O=C1C(CN2CCCCC2)CCN1c1ccc(C(F)(F)F)cc1` (stereo not shown) [Example 74], affinity at α1 receptor was put at a Ki of 4.4 nM.

Regarding `CC1CC(C)CN(CC2CCN(c3ccc(Cl)cc3)C2=O)C1` (stereo not shown) [Example 56], the inhibition in vivo at 10 mg/kg in experiment [1] came to 76%.
